Source: patent publication US12655130B2 (ASSEMBLY BIOSCIENCES, INC., priority 2020, dated 2026)

What follows are compounds tested on HBV viral load (viral production from HepAD38 cells) (assay: Activity of test compounds on viral production from HepAD38 cells (viral load by qPCR of HBV core sequence)). Conditions: Hepatitis B virus, HePAD38, 120 h, viral load lowering, 5 days, qPCR of supernatant, read-out: VL HepAD38 EC50 range.
Type: cell-based
How it was run: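 EC50 and CC50 come from four-parameter logistic fits: HBV core DNA in supernatant by TaqMan qPCR against DNA standards, normalised to DMSO controls, and cell viability by CellTiter-Glo. Cells were plated at 50,000/well without tetracycline (2% FBS) and exposed to compounds (highest 10 μM) for 5 days, 37 °C.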

For `Cn1cnc(C2CC3CC(O)(c4cc(OCC(O)CO)nn4C)CC3C2)c1C(=O)Nc1ccc(F)c(Cl)c1` (single isomer, unassigned) [Example 205, N-(3-Chloro-4-fluorophenyl)-4-(5-(3-(2,3-dihydroxypropoxy)-1-methyl-1H-pyrazol-5-yl)-5-hydroxyoctahydropentalen-2-yl)-1-methyl-1H-imidazole-5-carboxamide], which EC50 is on record?
The EC50 was < 10 nM.

`Cn1cnc(C2CC3CC(O)(c4cnn(C)c4C(F)(F)F)CC3C2)c1C(=O)Nc1ccc(F)c(Cl)c1` (centres unmarked) [Example 141, N-(3-Chloro-4-fluorophenyl)-4-(5-hydroxy-5-(1-methyl-5-(trifluoromethyl)-1H-pyrazol-4-yl)octahydropentalen-2-yl)-1-methyl-1H-imidazole-5-carboxamide] was tested. Which EC50 did it give?
Its EC50 is < 10 nM.

How did the EC50 turn out when `Cc1nc(C2CC3CC(O)(c4nccn4C)CC3C2)c(C(=O)Nc2ccc(F)c(Cl)c2)n1C` (single isomer, unassigned) [Example 27, N-(3-Chloro-4-fluorophenyl)-4-(5-hydroxy-5-(1-methyl-1H-imidazol-2-yl)octahydropentalen-2-yl)-1,2-dimethyl-1H-imidazole-5-carboxamide] was run?
The EC50 was < 10 nM.

How did the EC50 turn out when `Cn1cc(C2(O)CC3CC(c4ncn(C)c4C(=O)Nc4ccc(F)c(Cl)c4)CC3C2)c(C(O)CO)n1` (centres unmarked) [Example 190, N-(3-Chloro-4-fluorophenyl)-4-(5-(3-(1,2-dihydroxyethyl)-1-methyl-1H-pyrazol-4-yl)-5-hydroxyoctahydropentalen-2-yl)-1-methyl-1H-imidazole-5-carboxamide] was run?
The EC50 was < 10 nM.

With `Cc1cc(NC(=O)c2c(C3CC4CC(O)(c5cn(C)nc5C(F)(F)F)CC4C3)ncn2C)ccc1F` (centres unmarked) [Example 171, N-(4-Fluoro-3-methylphenyl)-4-(5-hydroxy-5-(1-methyl-3-(trifluoromethyl)-1H-pyrazol-4-yl)octahydropentalen-2-yl)-1-methyl-1H-imidazole-5-carboxamide] as the compound, how does the EC50 read?
The EC50 was < 10 nM.

For `CC(C)n1nc([N+](=O)[O-])cc1C1(O)CC2CC(c3ncn(C)c3C(=O)Nc3ccc(F)c(Cl)c3)CC2C1` (centres unmarked) [Example 164, N-(3-Chloro-4-fluorophenyl)-4-(5-hydroxy-5-(1-isopropyl-3-nitro-1H-pyrazol-5-yl)octahydropentalen-2-yl)-1-methyl-1H-imidazole-5-carboxamide], which EC50 is on record?
Its EC50 is < 10 nM.

With `Cn1cnc(C2CC3CC(O)(Cc4cc(C(F)(F)F)nn4C)CC3C2)c1C(=O)Nc1ccc(F)c(Cl)c1` (centres unmarked) [Example 155, N-(3-Chloro-4-fluorophenyl)-4-(5-hydroxy-5-((1-methyl-3-(trifluoromethyl)-1H-pyrazol-5-yl)methyl)octahydropentalen-2-yl)-1-methyl-1H-imidazole-5-carboxamide] as the compound, how does the EC50 read?
Its EC50 is < 10 nM.

`CC(=O)c1cc(C2(O)CC3CC(c4ncn(C)c4C(=O)Nc4ccc(F)c(Cl)c4)CC3C2)n(C)n1` (centres unmarked) [Example 58, 4-(5-(3-Acetyl-1-methyl-1H-pyrazol-5-yl)-5-hydroxyoctahydropentalen-2-yl)-N-(3-chloro-4-fluorophenyl)-1-methyl-1H-imidazole-5-carboxamide] was tested. Which EC50 did it give?
The EC50 was < 10 nM.

For `Cn1cnc(C2CC3CC(O)(c4cc(C(N)=O)nn4C)CC3C2)c1C(=O)Nc1ccc(F)c(Cl)c1` (centres unmarked) [Example 176, 5-(5-(5-((3-Chloro-4-fluorophenyl)carbamoyl)-1-methyl-1H-imidazol-4-yl)-2-hydroxyoctahydropentalen-2-yl)-1-methyl-1H-pyrazole-3-carboxamide], which EC50 is on record?
The EC50 was < 10 nM.

`Cn1cnc(C2CC3CC(O)CC3C2)c1C(=O)Nc1ccc(F)c(Cl)c1` (single isomer, unassigned) [Example 2, N-(3-Chloro-4-fluorophenyl)-4-(5-hydroxyoctahydropentalen-2-yl)-1-methyl-1H-imidazole-5-carboxamide] was tested. Which EC50 did it give?
Its EC50 is < 10 nM.

Which EC50 does the source give for `CN(C)c1cc(C2(O)CC3CC(c4ncn(C)c4C(=O)Nc4ccc(F)c(Cl)c4)CC3C2)n(C)n1` (centres unmarked) [Example 199, N-(3-Chloro-4-fluorophenyl)-4-(5-(3-(dimethylamino)-1-methyl-1H-pyrazol-5-yl)-5-hydroxyoctahydropentalen-2-yl)-1-methyl-1H-imidazole-5-carboxamide] here?
Its EC50 is < 10 nM.
